Measurements as given in ChEMBL document CHEMBL1201862, “PubChem BioAssay data set” (2004).
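Each compound was tested at five concentrations against cells in 96-well plates for 48 hours. The concentration for 50% growth inhibition is given as GI50.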 Calls of active or inactive are those of the source. Cut-off read from the data, not from the text of the source: active = GI50 up to about 1.1 µM and inactive = higher.

What was measured:
Assay in all cases: NCI-60 cell line screen, 48 h
MDA-MB-435 = test system: MDA-MB-435
OVCAR-5 = test system: OVCAR-5
SF-268 = test system: SF-268
M14 = test system: M14
SK-OV-3 = test system: SK-OV-3
SK-MEL-28 = test system: SK-MEL-28
OVCAR-8 = test system: OVCAR-8
SN12C = test system: SN12C
HL-60 = test system: HL-60
T47D = test system: T47D
RXF 393 = test system: RXF 393
NCI-H522 = test system: NCI-H522
SF-539 = test system: SF-539
MDA-MB-231 = test system: MDA-MB-231
OVCAR-3 = test system: OVCAR-3
Malme-3M = test system: Malme-3M
MDA-N = test system: MDA-N
SNB-19 = test system: SNB-19
A549 = test system: A549
SR = test system: SR
ACHN = test system: ACHN
KM12 = test system: KM12
HCT-116 = test system: HCT-116
SK-MEL-5 = test system: SK-MEL-5
NCI/ADR-RES = test system: NCI/ADR-RES
HCT-15 = test system: HCT-15
NCI-H226 = test system: NCI-H226
IGROV-1 = test system: IGROV-1
MOLT-4 = test system: MOLT-4
HCC 2998 = test system: HCC 2998
UACC-257 = test system: UACC-257
U-251 = test system: U-251
HT-29 = test system: HT-29
DU-145 = test system: DU-145
MCF7 = test system: MCF7
COLO 205 = test system: COLO 205
OVCAR-4 = test system: OVCAR-4
SNB-75 = test system: SNB-75
SW-620 = test system: SW-620
RPMI-8226 = test system: RPMI-8226
K562 = test system: K562
EKVX = test system: EKVX
HOP-62 = test system: HOP-62
CCRF-CEM = test system: CCRF-CEM
TK-10 = test system: TK-10
LOX IMVI = test system: LOX IMVI
PC-3 = test system: PC-3
SK-MEL-2 = test system: SK-MEL-2
Hs-578T = test system: Hs-578T
786-0 = test system: 786-0
SF-295 = test system: SF-295
HOP-92 = test system: HOP-92
CAKI-1 = test system: CAKI-1
UACC-62 = test system: UACC-62
NCI-H23 = test system: NCI-H23
A498 = test system: A498
NCI-H460 = test system: NCI-H460
UO-31 = test system: UO-31

O=c1[nH]c(Nc2cccc(C(F)(F)F)c2)nc2[nH]cnc12 was tested, and the GI50 (MDA-MB-435) was > 100 µM (inactive), the GI50 (OVCAR-5) was > 100 µM (inactive) and the GI50 (SF-268) was > 100 µM (inactive). For the same molecule, the GI50 (M14) was > 100 µM (inactive), the GI50 (SK-OV-3) was > 100 µM (inactive) and the GI50 (SK-MEL-28) was > 100 µM (inactive). The GI50 (OVCAR-8) was > 100 µM (inactive), the GI50 (SN12C) was > 100 µM (inactive) and the GI50 (HL-60) was > 100 µM (inactive). For the same molecule, the GI50 (T47D) was > 100 µM (inactive), the GI50 (RXF 393) was > 100 µM (inactive) and the GI50 (NCI-H522) was 69.7 µM (inactive). For the same molecule, the GI50 (SF-539) was > 100 µM (inactive), the GI50 (MDA-MB-231) was > 100 µM (inactive) and the GI50 (OVCAR-3) was > 100 µM (inactive). The GI50 (Malme-3M) was > 100 µM (inactive), the GI50 (MDA-N) was 82.2 µM (inactive) and the GI50 (SNB-19) was > 100 µM (inactive). The GI50 (A549) was > 100 µM (inactive), the GI50 (SR) was > 100 µM (inactive) and the GI50 (ACHN) was > 100 µM (inactive). For the same molecule, the GI50 (KM12) was > 100 µM (inactive), the GI50 (HCT-116) was 80 µM (inactive) and the GI50 (SK-MEL-5) was 40.1 µM (inactive). For the same molecule, the GI50 (NCI/ADR-RES) was > 100 µM (inactive), the GI50 (HCT-15) was > 100 µM and the GI50 (NCI-H226) was > 100 µM (inactive). For the same molecule, the GI50 (IGROV-1) was > 100 µM (inactive), the GI50 (MOLT-4) was > 100 µM (inactive) and the GI50 (HCC 2998) was > 100 µM (inactive). The GI50 (UACC-257) was > 100 µM (inactive), the GI50 (U-251) was > 100 µM (inactive) and the GI50 (HT-29) was 77.1 µM (inactive). For the same molecule, the GI50 (DU-145) was > 100 µM (inactive), the GI50 (MCF7) was > 100 µM (inactive) and the GI50 (COLO 205) was 73.3 µM (inactive). The GI50 (OVCAR-4) was 94.2 µM (inactive), the GI50 (SNB-75) was 71.1 µM (inactive) and the GI50 (SW-620) was > 100 µM (inactive). The GI50 (RPMI-8226) was > 100 µM (inactive), the GI50 (K562) was > 100 µM (inactive) and the GI50 (EKVX) was > 100 µM (inactive). The GI50 (HOP-62) was > 100 µM (inactive), the GI50 (CCRF-CEM) was > 100 µM (inactive) and the GI50 (TK-10) was > 100 µM (inactive). The GI50 (LOX IMVI) was > 100 µM (inactive), the GI50 (PC-3) was 75.2 µM (inactive) and the GI50 (SK-MEL-2) was 88.3 µM (inactive). The GI50 (Hs-578T) was 75.7 µM (inactive), the GI50 (786-0) was > 100 µM (inactive) and the GI50 (SF-295) was > 100 µM (inactive). The GI50 (HOP-92) was > 100 µM (inactive) and the GI50 (CAKI-1) was > 100 µM (inactive).

With COc1ccc(/C(C)=C2\CCCN(Cc3ccccc3)C2)cc1 the GI50 (MDA-MB-435) was 20.7 µM (inactive), the GI50 (OVCAR-5) was 31.4 µM (inactive) and the GI50 (SF-268) was 17.4 µM (inactive). The GI50 (M14) was 18.1 µM (inactive), the GI50 (SK-OV-3) was 29.9 µM (inactive) and the GI50 (SK-MEL-28) was 22 µM (inactive). The GI50 (OVCAR-8) was 18.3 µM (inactive), the GI50 (HL-60) was 23.2 µM (inactive) and the GI50 (T47D) was 22.5 µM (inactive). The GI50 (RXF 393) was 18.6 µM (inactive), the GI50 (NCI-H522) was 13.4 µM (inactive) and the GI50 (SF-539) was 15.8 µM (inactive). For the same molecule, the GI50 (MDA-MB-231) was 21.4 µM (inactive), the GI50 (UACC-62) was 19.8 µM (inactive) and the GI50 (OVCAR-3) was 18.6 µM (inactive). The GI50 (Malme-3M) was 19.2 µM (inactive), the GI50 (MDA-N) was 18.8 µM (inactive) and the GI50 (SNB-19) was 22.9 µM (inactive). For the same molecule, the GI50 (A549) was 32 µM (inactive), the GI50 (NCI-H23) was 25.8 µM (inactive) and the GI50 (SR) was 20.4 µM (inactive). For the same molecule, the GI50 (ACHN) was 28.1 µM (inactive), the GI50 (KM12) was 17 µM (inactive) and the GI50 (SK-MEL-5) was 17.5 µM (inactive). For the same molecule, the GI50 (NCI/ADR-RES) was 22.6 µM (inactive), the GI50 (HCT-15) was 20.3 µM and the GI50 (NCI-H226) was 21.5 µM (inactive). The GI50 (IGROV-1) was 28.2 µM (inactive), the GI50 (MOLT-4) was 24.4 µM (inactive) and the GI50 (HCC 2998) was 21 µM (inactive). The GI50 (UACC-257) was 29.2 µM (inactive), the GI50 (U-251) was 19.6 µM (inactive) and the GI50 (A498) was 33.7 µM (inactive). The GI50 (HT-29) was 18.9 µM (inactive), the GI50 (DU-145) was 34.6 µM (inactive) and the GI50 (MCF7) was 19.2 µM (inactive). For the same molecule, the GI50 (COLO 205) was 17.5 µM (inactive), the GI50 (OVCAR-4) was 27.2 µM (inactive) and the GI50 (SNB-75) was 24.2 µM (inactive). The GI50 (SW-620) was 19.1 µM (inactive), the GI50 (NCI-H460) was 22.4 µM (inactive) and the GI50 (RPMI-8226) was 18.6 µM (inactive). For the same molecule, the GI50 (UO-31) was 19.9 µM (inactive), the GI50 (K562) was 24 µM (inactive) and the GI50 (EKVX) was 37.1 µM (inactive). For the same molecule, the GI50 (HOP-62) was 18.3 µM (inactive), the GI50 (CCRF-CEM) was 20.2 µM (inactive) and the GI50 (TK-10) was 38.8 µM (inactive). The GI50 (LOX IMVI) was 16.7 µM (inactive), the GI50 (PC-3) was 23 µM (inactive) and the GI50 (SK-MEL-2) was 19.1 µM (inactive). For the same molecule, the GI50 (Hs-578T) was 13.5 µM (inactive), the GI50 (786-0) was 19.2 µM (inactive) and the GI50 (SF-295) was 16.5 µM (inactive). The GI50 (HOP-92) was 17.7 µM (inactive) and the GI50 (CAKI-1) was 22.6 µM (inactive).

In the case of CC(C)(C)C(=O)C(C#N)C(=O)C(C)(C)C, the GI50 (MDA-MB-435) is reported as > 100 µM (inactive), the GI50 (OVCAR-5) is reported as > 100 µM (inactive) and the GI50 (SF-268) is reported as > 100 µM (inactive). For the same molecule, the GI50 (M14) was > 100 µM (inactive), the GI50 (SK-OV-3) was > 100 µM (inactive) and the GI50 (SK-MEL-28) was > 100 µM (inactive). The GI50 (OVCAR-8) was > 100 µM (inactive), the GI50 (SN12C) was > 100 µM (inactive) and the GI50 (HL-60) was > 100 µM (inactive). For the same molecule, the GI50 (T47D) was > 100 µM (inactive), the GI50 (RXF 393) was > 100 µM (inactive) and the GI50 (NCI-H522) was > 100 µM (inactive). The GI50 (SF-539) was > 100 µM (inactive), the GI50 (MDA-MB-231) was > 100 µM (inactive) and the GI50 (OVCAR-3) was > 100 µM (inactive). For the same molecule, the GI50 (Malme-3M) was > 100 µM (inactive), the GI50 (MDA-N) was > 100 µM (inactive) and the GI50 (SNB-19) was > 100 µM (inactive). The GI50 (A549) was > 100 µM (inactive), the GI50 (NCI-H23) was > 100 µM (inactive) and the GI50 (SR) was 0.0697 µM (active). For the same molecule, the GI50 (ACHN) was > 100 µM (inactive), the GI50 (KM12) was > 100 µM (inactive) and the GI50 (HCT-116) was > 100 µM (inactive). The GI50 (SK-MEL-5) was > 100 µM (inactive), the GI50 (NCI/ADR-RES) was > 100 µM (inactive) and the GI50 (HCT-15) was > 100 µM. The GI50 (NCI-H226) was > 100 µM (inactive), the GI50 (IGROV-1) was > 100 µM (inactive) and the GI50 (MOLT-4) was > 100 µM (inactive). For the same molecule, the GI50 (HCC 2998) was > 100 µM (inactive), the GI50 (UACC-257) was > 100 µM (inactive) and the GI50 (U-251) was > 100 µM (inactive). The GI50 (A498) was > 100 µM (inactive), the GI50 (HT-29) was > 100 µM (inactive) and the GI50 (DU-145) was > 100 µM (inactive). The GI50 (MCF7) was > 100 µM (inactive), the GI50 (COLO 205) was > 100 µM (inactive) and the GI50 (OVCAR-4) was > 100 µM (inactive). The GI50 (SNB-75) was > 100 µM (inactive), the GI50 (SW-620) was > 100 µM (inactive) and the GI50 (NCI-H460) was > 100 µM (inactive). For the same molecule, the GI50 (RPMI-8226) was > 100 µM (inactive), the GI50 (UO-31) was > 100 µM (inactive) and the GI50 (K562) was > 100 µM (inactive). For the same molecule, the GI50 (EKVX) was > 100 µM (inactive), the GI50 (HOP-62) was > 100 µM (inactive) and the GI50 (CCRF-CEM) was > 100 µM (inactive). For the same molecule, the GI50 (TK-10) was > 100 µM (inactive), the GI50 (LOX IMVI) was > 100 µM (inactive) and the GI50 (PC-3) was > 100 µM (inactive). The GI50 (SK-MEL-2) was > 100 µM (inactive), the GI50 (Hs-578T) was > 100 µM (inactive) and the GI50 (786-0) was > 100 µM (inactive). The GI50 (SF-295) was > 100 µM (inactive), the GI50 (HOP-92) was > 100 µM (inactive) and the GI50 (CAKI-1) was > 100 µM (inactive).
